SMILES strings stand for the structures. Where a name gives a salt, the structure may show the parent alone.

For orientation: ED50 means the dose that gives a 50% effect, or the effect in half of the subjects.

The test system of the first assay is Candida albicans. Kind of assay: Infection-preventing effect in experimental infection in mice, Method 1 (Table 7-1). Conditions: Candida albicans, po, 168 h, p.o., given 0 and 2 hours after infection; survival 7 days after infection; total dose; read-out: ED50. It is filed as in vivo, Crj:CDF1 mice. How it is done: Method 1 (Table 7-1): To 5-week-old Crj:CDF1 mice the minimum lethal dose of Candida albicans was inoculated intravenously. The test drug was given twice 0 and 2 hours after infection. The effectiveness of the drug was expressed in ED50 values calculated by the Reed and Muench method from the survival rate 7 days after infection. The ED50 values were calculated based on the total dose given on the two occasions.
`C[C@@H](SCc1nccn1C)[C@](O)(Cn1cncn1)c1ccc(F)cc1F` (relative stereo) [16(hydrochloride)]: the median effective dose (ED50) amounted to 0.71 mg/kg.

The same assay, now with this note: Candida albicans, sc, 168 h, s.c., given 0 and 2 hours after infection; survival 7 days after infection; total dose; read-out: ED50.
For `C[C@@H](SCc1cn2ccccc2n1)[C@](O)(Cn1cncn1)c1ccc(F)cc1F` (relative stereo) [27(hydrochloride)], the ED50 amounted to 3.2 mg/kg.

For the compound `C[C@@H](SCc1nccn1CC(F)(F)C(F)F)[C@](O)(Cn1cncn1)c1ccc(F)cc1F` (relative stereo) [30(hydrochloride)], the ED50 was found to be 0.88 mg/kg. The same measure, in the same setting: the value for `C[C@@H](SCc1nccs1)[C@](O)(Cn1cncn1)c1ccc(F)cc1F` (relative stereo) [38(hydrochloride)] was 3.2 mg/kg.

The test system of the next assay is Candida albicans (IFO 0538). Kind of assay: Antifungal activity against Candida albicans, paper disc growth inhibition zone (Tables 5 and 6). Type of assay: cell-based. The following applies: 48 h, A medium (yeast nitrogen base agar), 28° C., 2 days incubation; read-out: Inhibition zone diameter. How it is done: The antifungal activities of the compounds (I) were evaluated by the following method: a sheet of filter paper disc (manufactured by Toyo Seisakusho, 8 mm in diameter) soaked in a 1000 μg/ml solution of a compound (I) in methanol was placed on an agar plate, which was incubated at 28° C. for 2 days, and the diameter of the growth inhibition zone around the filter paper disc was measured. The following culture media were used:
A: yeast nitrogen base agar medium
B: yeast nitrogen base agar medium (pH 7.0)
Consider `C[C@@H](SCCn1cncn1)[C@](O)(Cn1cncn1)c1ccc(F)cc1F` (relative stereo) [Compound 13], for which the zone of inhibition at 1000 µg/mL amounted to 34 mm. The same measure, in the same setting: for `C[C@H]([C@](O)(Cn1cncn1)c1ccc(F)cc1F)S(=O)(=O)CCn1cncn1` (relative stereo) [Compound 14] the value was 22 mm; for `OC(CSCCSCCn1ccnc1)(Cn1cncn1)c1ccc(F)cc1F` (stereo not shown) [Compound 7], 18 mm. Still for that read-out and setting: for `OC(CSCCc1ccncc1)(Cn1cncn1)c1ccc(F)cc1F` (stereo not shown) [Compound 8] the value was 25 mm; for `CC(SCC(O)(Cn1cncn1)c1ccc(F)cc1F)c1ccncc1` (stereo not shown) [Compound 9], 21 mm.

The assay is the same for the next values; noted with them: 48 h, pH 7, B medium (yeast nitrogen base agar, pH 7.0), 28° C., 2 days incubation; read-out: Inhibition zone diameter.
As for `C[C@@H](SCCSCCn1cncn1)[C@](O)(Cn1cncn1)c1ccc(F)cc1F` (relative stereo) [Compound 22], the zone of inhibition at 1000 µg/mL turned out to be 25 mm. On the same count and under the same terms, the value for `C[C@@H](SCCSCCn1ccnc1)[C@](O)(Cn1cncn1)c1ccc(F)cc1F` (relative stereo) [Compound 23] was 25 mm.

On to `C[C@@H](SCc1cn2ccccc2n1)[C@](O)(Cn1cncn1)c1ccc(F)cc1F` (relative stereo) [Compound 27], for which the zone of inhibition at 1000 µg/mL was 45 mm. For the compound `C[C@@H](SCc1nccn1CC(F)(F)C(F)F)[C@](O)(Cn1cncn1)c1ccc(F)cc1F` (relative stereo) [Compound 30], the zone of inhibition at 1000 µg/mL turned out to be 40 mm. The same measure, in the same setting: for `C[C@@H](SCc1nccs1)[C@](O)(Cn1cncn1)c1ccc(F)cc1F` (relative stereo) [Compound 38] the value was 47 mm; for `CC(=O)S[C@@H](C)[C@](O)(Cn1cncn1)c1ccc(F)cc1F` (relative stereo) [Compound 61], 30 mm. For `Cn1ccnc1CSCCSCC(O)(Cn1cncn1)c1ccc(F)cc1F` (stereo not shown) [Compound 17], the zone of inhibition at 1000 µg/mL came out at 25 mm.

`Cn1ccnc1SCCSCC(O)(Cn1cncn1)c1ccc(F)cc1F` (stereo not shown) [Compound 18]: the zone of inhibition at 1000 µg/mL came out at 25 mm.

Regarding `OC(CSCCSCc1ccncc1)(Cn1cncn1)c1ccc(F)cc1F` (stereo not shown) [Compound 19], the zone of inhibition at 1000 µg/mL came out at 30 mm. In the case of `Cn1nnnc1SCCSCC(O)(Cn1cncn1)c1ccc(F)cc1F` (stereo not shown) [Compound 20], the zone of inhibition at 1000 µg/mL came to 25 mm. Same read-out and setting: the value for `OC(CSCCSCCn1cncn1)(Cn1cncn1)c1ccc(F)cc1F` (stereo not shown) [Compound 21] was 20 mm. Same read-out and setting: the value for `OC(CSCCSc1ccncc1)(Cn1cncn1)c1ccc(F)cc1F` (stereo not shown) [Compound 24] was 25 mm. `C[C@@H](SCc1nncn1C)[C@](O)(Cn1cncn1)c1ccc(F)cc1F` [Compound 95]: the zone of inhibition at 1000 µg/mL was 28 mm. Same read-out and setting: for `CCn1ccnc1CS[C@H](C)[C@](O)(Cn1cncn1)c1ccc(F)cc1F` [Compound 101] the value was 38 mm. Still for that read-out and setting: the value for `CC(C)n1ccnc1CS[C@H](C)[C@](O)(Cn1cncn1)c1ccc(F)cc1F` [Compound 102] was 35 mm.

Still in this assay, the particulars now being: A medium (yeast nitrogen base agar), 28° C., 2 days incubation.
`CC(SCC(O)(Cn1cncn1)c1ccc(F)cc1F)c1ccncc1` (stereo not shown) [Compound 11] displayed an Inhibition zone diameter of 24 mm.

The values are drawn from patent US5405861A, “Triazole compounds and antifungal compositions thereof” (Takeda Chemical Industries, Co., Ltd., priority 1989, dated 1995).
